Several values for one entry are separate records, joined by “and”; a condition that tells them apart may be missing. Equal values may be shown once. Read-outs that look alike come from different tables or passages of the source.
How the values were obtained:
[1] = target: HIV-1 reverse transcriptase (HIV-1 RT) (Human immunodeficiency virus type 1 group M subtype B, UniProt P03366); format: biochemical
WT 3Dpol = WT 3Dpol (Foot-and-mouth disease virus, UniProt P03311); assay: biochemical; conditions: IC50 (filter binding assay)
WT 3Dpol, sequence (P03311 1858-2327 limits assumed): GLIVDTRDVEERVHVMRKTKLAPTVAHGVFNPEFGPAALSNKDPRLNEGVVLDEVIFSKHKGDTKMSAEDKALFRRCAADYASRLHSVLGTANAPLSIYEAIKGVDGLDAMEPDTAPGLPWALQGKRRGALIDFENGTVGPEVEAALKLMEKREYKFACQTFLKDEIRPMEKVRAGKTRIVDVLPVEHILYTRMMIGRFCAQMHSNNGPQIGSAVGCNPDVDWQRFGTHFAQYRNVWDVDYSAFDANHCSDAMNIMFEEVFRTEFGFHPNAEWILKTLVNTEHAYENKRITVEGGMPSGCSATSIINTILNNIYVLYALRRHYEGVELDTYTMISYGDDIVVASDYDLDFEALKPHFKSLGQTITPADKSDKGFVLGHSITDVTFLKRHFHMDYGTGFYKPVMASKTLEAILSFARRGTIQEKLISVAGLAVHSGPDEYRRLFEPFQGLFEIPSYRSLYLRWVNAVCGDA

[2] = target: Klenow Fragment (KF) of E. coli DNA polymerase I (Escherichia coli, UniProt P00582); format: biochemical
Klenow Fragment (KF) of E. coli DNA polymerase I, sequence (P00582 324-928): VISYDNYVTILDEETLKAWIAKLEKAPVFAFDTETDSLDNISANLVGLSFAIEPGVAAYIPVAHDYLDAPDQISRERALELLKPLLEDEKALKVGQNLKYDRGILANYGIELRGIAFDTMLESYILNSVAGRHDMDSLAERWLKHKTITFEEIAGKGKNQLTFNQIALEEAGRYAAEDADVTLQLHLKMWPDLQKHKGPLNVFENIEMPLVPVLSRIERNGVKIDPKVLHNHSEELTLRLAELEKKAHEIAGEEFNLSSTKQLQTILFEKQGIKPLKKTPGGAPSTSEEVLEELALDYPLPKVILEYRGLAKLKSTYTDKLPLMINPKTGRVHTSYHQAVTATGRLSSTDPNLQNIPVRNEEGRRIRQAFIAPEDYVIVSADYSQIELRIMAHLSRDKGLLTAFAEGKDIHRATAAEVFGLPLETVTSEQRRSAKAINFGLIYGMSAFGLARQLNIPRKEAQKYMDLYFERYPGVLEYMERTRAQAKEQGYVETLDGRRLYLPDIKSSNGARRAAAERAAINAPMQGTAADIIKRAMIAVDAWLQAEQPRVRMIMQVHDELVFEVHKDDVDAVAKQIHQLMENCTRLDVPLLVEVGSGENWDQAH

FMDV 3Dpol [3] = target: T1, FMDV 3Dpol (Foot-and-mouth disease virus, UniProt P03311); assay: biochemical; conditions: IC50 of 3Dpol inhibition (gel-based)
T1 sequence (P03311 1858-2327 limits assumed): as the sequence (P03311 1858-2327 limits assumed) above

FMDV = conditions: cited from earlier work; for EC50: read-out: EC50 (FMDV replication in cell cultures); for EC90: read-out: EC90 (FMDV replication in cell cultures)
in vitro = conditions: hamster
FMDV A24 Cruzeiro = assay: microbe, parasite or virus in culture; format: cell-based, Foot-and-Mouth Disease Virus
FMDV 3Dpol [4] = target: T1, FMDV 3Dpol; assay: biochemical; format: biochemical
FMDV 3Dpol [5] = target: T1, FMDV 3Dpol; assay: biochemical

SMILES	inhibition of HIV-1 RT polymerase activity [1]	inhibition of KF polymerase activity [2]	IC50 (FMDV 3Dpol [3])	CC50 (in vitro) [µM]	further results
O=[N+]([O-])c1ccc(Sc2ccc(Cl)cc2Cl)c2nonc12 [1A8]	No significant inhibition	No significant inhibition	17.8 µM		IC50 (WT 3Dpol): 17.4 µM and 17.8 µM
C[C@@]1(O)[C@H](O)[C@@H](CO)O[C@H]1n1ccc(N)nc1=O [2′-C-methylcytidine]					EC50 (FMDV): 10 µM; EC90 (FMDV): 15 µM
N#CC(C(=O)Nc1cccc(C(F)(F)F)c1)C(=S)Nc1ccccc1Cl (centres unmarked) [3A11]			~2 µM and 2 µM	70	
O=C(Sc1cccs1)c1cncc(C#Cc2ccccc2)c1 [4H6]	No significant inhibition	No significant inhibition	8 µM	> 100	
O=S(=O)(NNc1ncnc2sccc12)c1ccc(Cl)cc1 [5D9]	No significant inhibition	No significant inhibition	12 µM	> 100	antiviral potency relative to ribavirin (FMDV A24 Cruzeiro): ~80 fold; inhibition of viral replication (FMDV A24 Cruzeiro): inhibition of viral replication; EC50 (FMDV A24 Cruzeiro; Foot-and-mouth disease virus, BHK-21, 24 h, read-out: EC50 (virus production in FMDV-infected cells)): 12 µM; EC90 (FMDV A24 Cruzeiro; Foot-and-mouth disease virus, BHK-21, 24 h, read-out: EC90 (virus production in FMDV-infected cells)): 20 µM; inhibition at 20 µM (FMDV A24 Cruzeiro; Foot-and-mouth disease virus, BHK-21, read-out: inhibition of virus replication): 90%; Ki (FMDV 3Dpol [4]): 9.4 ± 2.5 µM; kinetic mechanism of inhibition (FMDV 3Dpol [4]): non-competitive
O=S1(=O)C=C(CSc2cccs2)c2cc(Cl)ccc21 [7F8]	No significant inhibition	No significant inhibition	10 µM	> 100	kinetic mechanism of inhibition (FMDV 3Dpol [4]): non-competitive
O=C1C(Cl)=C(Sc2ccccc2Br)C(=O)c2ccccc21 [8C5]	No significant inhibition	No significant inhibition	5.4 µM	55	inhibition of viral replication (FMDV A24 Cruzeiro): inhibition of viral replication; IC50 (WT 3Dpol): 5.4 µM
CCOC(=O)/C(=N\Nc1ccc(Br)cc1)C(=O)CSC#N [9A3]	No significant inhibition	No significant inhibition	10 µM	> 100	
Cc1cn([C@@H]2O[C@H](COP(=O)(O)OP(=O)(O)OP(=O)(O)O)C[C@H]2O)c(=O)[nH]c1=O [DMUT, 3′-deoxy-5-methyl uridine triphosphate]					IC50 (FMDV 3Dpol [5]): 0.68 µM
NC(=O)c1ncn([C@@H]2O[C@H](CO)[C@@H](O)[C@H]2O)n1 [ribavirin]					EC50 (FMDV): 970 µM; EC90 (FMDV): 1700 µM

Reference: PMC3006429 (PLoS ONE, 2010)
